Laboratory results from PubChem BioAssay AID488998 (The Scripps Research Institute Molecular Screening Center, 2010).
Activity calls are given as the source filed them.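 The calls were made as follows: active = IC50 at or below 10 µM; inactive = IC50 above 10 µM.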

Biological target: Lytic switch protein BZLF1 (Epstein-Barr virus (strain B95-8)) (UniProt P03206)
Test: Zta-DNA binding inhibition potency, late-stage follow-up, counter-screen for EBNA-1 inhibitor project, biochemical, fluorescence polarization, dose response, round 0 (AID 488998)
Details: purified Zta–Cy5 ZRE DNA binding

Sequence of Lytic switch protein BZLF1 (Epstein-Barr virus (strain B95-8)) (P03206 whole entry, looked up): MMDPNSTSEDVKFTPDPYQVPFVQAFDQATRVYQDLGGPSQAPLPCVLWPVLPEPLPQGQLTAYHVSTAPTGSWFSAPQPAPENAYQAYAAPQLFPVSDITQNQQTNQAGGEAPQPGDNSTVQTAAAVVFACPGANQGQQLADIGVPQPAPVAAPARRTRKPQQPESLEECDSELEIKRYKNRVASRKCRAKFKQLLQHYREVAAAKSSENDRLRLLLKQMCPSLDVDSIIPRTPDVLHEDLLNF

Compound	IC50
COCCn1c(C)cc(C(=O)CSc2nnnn2-c2ccccc2)c1C	> 111 µM (inactive)
Cc1ccc(C(=O)Nc2nc3cc(F)ccc3s2)cc1C	> 111 µM (inactive)
Cc1cc(C(=O)CSc2nnnn2C2CC2)c(C)n1CC1CCCO1 (stereo not given)	> 111 µM (inactive)
Cc1cccc(-n2nnnc2SCC(=O)c2cc(C)n(CC3CCCO3)c2C)c1 (stereo not given)	> 111 µM (inactive)
CS(=O)(=O)c1ccc2nc(NC(=O)c3ccccc3Cl)sc2c1	> 111 µM (inactive)
Cc1cc(C(=O)CSc2nnnn2-c2ccc(Cl)cc2)c(C)n1CC1CCCO1 (stereo not given)	> 111 µM (inactive)
COc1ccc(-n2nnnc2SCC(=O)c2cc(C)n(CC3CCCO3)c2C)cc1 (stereo not given)	> 111 µM (inactive)
COc1cccc(C(=O)Nc2nc3ccc(S(C)(=O)=O)cc3s2)c1	> 111 µM (inactive)
COc1ccc(C(=O)Nc2nc3ccc(S(C)(=O)=O)cc3s2)cc1	> 111 µM (inactive)
COc1ccc2nc(NC(=O)c3ccc(C)c(C)c3)sc2c1	> 111 µM (inactive)
CS(=O)(=O)c1ccc2nc(NC(=O)c3ccccc3F)sc2c1	> 111 µM (inactive)
Cc1cc(C(=O)CSc2nnnn2C)c(C)n1CC1CCCO1 (stereo not given)	> 111 µM (inactive)
COc1ccc2sc(NC(=O)c3ccc(C)c(C)c3)nc2c1	> 111 µM (inactive)
Cc1ccccc1C(=O)Nc1nc2ccc(S(C)(=O)=O)cc2s1	> 111 µM (inactive)
CS(=O)(=O)c1ccc2nc(NC(=O)c3cccc(Cl)c3)sc2c1	> 111 µM (inactive)
COc1cccc2sc(NC(=O)c3ccc(C)c(C)c3)nc12	> 111 µM (inactive)
Cc1ccc(C(=O)Nc2nc3ccc(S(C)(=O)=O)cc3s2)cc1	> 111 µM (inactive)
Cc1ccc(-n2nnnc2SCC(=O)c2cc(C)n(CC3CCCO3)c2C)cc1 (stereo not given)	> 111 µM (inactive)
O=C(CSc1nnnn1-c1ccccc1)c1ccn(CC2CCCO2)c1 (stereo not given)	> 111 µM (inactive)
Cc1ccc(C(=O)Nc2nc3cc(Br)ccc3s2)cc1C	> 111 µM (inactive)
Cc1ccccc1-n1nnnc1SCC(=O)c1cc(C)n(CC2CCCO2)c1C (stereo not given)	> 111 µM (inactive)
Cc1cc(C(=O)CSc2nnnn2-c2cccc(F)c2)c(C)n1CC1CCCO1 (stereo not given)	> 111 µM (inactive)
Cc1cc(C(=O)CSc2nnnn2-c2ccccc2)c(C)n1C	> 111 µM (inactive)
CCn1c(C)cc(C(=O)CSc2nnnn2-c2ccccc2)c1C	> 111 µM (inactive)
CS(=O)(=O)c1ccc2nc(NC(=O)c3ccc(Cl)cc3)sc2c1	> 111 µM (inactive)
COc1ccccc1C(=O)Nc1nc2ccc(S(C)(=O)=O)cc2s1	> 111 µM (inactive)
CS(=O)(=O)c1ccc2nc(NC(=O)c3cccc(F)c3)sc2c1	> 111 µM (inactive)
Cc1cccc(C(=O)Nc2nc3ccc(S(C)(=O)=O)cc3s2)c1	> 111 µM (inactive)
Cc1ccc(C(=O)Nc2nc3ccc(Br)cc3s2)cc1C	> 111 µM (inactive)
Cc1cc(C(=O)CSc2nnnn2-c2ccccc2)c(C)n1Cc1cccs1	> 111 µM (inactive)
